Experimental data: the NIST ThermoML archive (doi:10.1016/j.tca.2011.08.002)

Columns and labels:
[1] = 101 kPa, Liquid, Vibrating tube method
[2] = refractive index (Na D-line) (dimensionless); conditions: 101.33 kPa, Liquid, Standard Abbe refractometry
[3] = xn = mol fraction of the nth substance listed; conditions: 101 kPa, Liquid, Vibrating tube method, x1 = 1
[4] = refractive index (Na D-line) (dimensionless); xn = mol fraction of the nth substance listed; conditions: 101 kPa, Liquid, Standard Abbe refractometry, x1 = 1

CC(C)(C)O [2-methylpropan-2-ol]
Conditions	mass density, 303.15 K [kg/m3]	mass density, 308.15 K [kg/m3]	mass density, 313.15 K [kg/m3]	mass density, 318.15 K [kg/m3]	mass density, 323.15 K [kg/m3]	refractive index, 303.15 K	refractive index, 308.15 K	refractive index, 313.15 K	refractive index, 318.15 K	refractive index, 323.15 K
[1]	775.412	770.193	764.884	759.488	754.015	–	–	–	–	–
[2]	–	–	–	–	–	1.38222	1.37947	1.37667	1.37384	1.37097

CC(C)(C)O [2-methylpropan-2-ol] + C1CCC(NC2CCCCC2)CC1
Conditions	mass density, 303.15 K [kg/m3]	mass density, 308.15 K [kg/m3]	mass density, 313.15 K [kg/m3]	mass density, 318.15 K [kg/m3]	mass density, 323.15 K [kg/m3]	refractive index, 303.15 K	refractive index, 308.15 K	refractive index, 313.15 K	refractive index, 318.15 K	refractive index, 323.15 K
[3]	775.412	770.193	764.884	759.488	754.015	–	–	–	–	–
[4]	–	–	–	–	–	1.38222	1.37947	1.37667	1.37384	1.37097

C1CCC(NC2CCCCC2)CC1 [N-cyclohexylcyclohexanamine]
Conditions	mass density, [1] [kg/m3]	refractive index, [2]
288.15 K	915.498	1.48636
293.15 K	911.705	1.48416
298.15 K	907.923	1.48198
303.15 K	904.144	1.47978
308.15 K	900.372	1.47761
313.15 K	896.608	1.47562
318.15 K	892.847	1.47347
323.15 K	889.089	1.47134

CCCCO [butan-1-ol]
Conditions	mass density, [1] [kg/m3]	refractive index, [2]
288.15 K	813.373	1.40135
293.15 K	809.573	1.39932
298.15 K	805.762	1.3973
303.15 K	801.923	1.39523
308.15 K	798.053	1.39318
313.15 K	794.147	1.3911
318.15 K	790.231	1.38901
323.15 K	786.238	1.38688

CCCCO [butan-1-ol] + C1CCC(NC2CCCCC2)CC1
Conditions	mass density, [3] [kg/m3]	refractive index, [4]
288.15 K	813.373	1.40135
293.15 K	809.573	1.39932
298.15 K	805.762	1.3973
303.15 K	801.923	1.39523
308.15 K	798.053	1.39318
313.15 K	794.147	1.3911
318.15 K	790.231	1.38901
323.15 K	786.238	1.38688

CCC(C)O (centres undefined) [butan-2-ol]
Conditions	mass density, [1] [kg/m3]	refractive index, [2]
288.15 K	810.689	1.39951
293.15 K	806.646	1.39736
298.15 K	802.528	1.39515
303.15 K	798.326	1.39293
308.15 K	794.03	1.39064
313.15 K	789.632	1.38832
318.15 K	785.117	1.38596
323.15 K	780.515	1.38352

CCC(C)O (centres undefined) [butan-2-ol] + C1CCC(NC2CCCCC2)CC1
Conditions	mass density, [3] [kg/m3]	refractive index, [4]
288.15 K	810.689	1.39951
293.15 K	806.646	1.39736
298.15 K	802.528	1.39515
303.15 K	798.326	1.39293
308.15 K	794.03	1.39064
313.15 K	789.632	1.38832
318.15 K	785.117	1.38596
323.15 K	780.515	1.38352

CCCCCO [pentan-1-ol]
Conditions	mass density, [1] [kg/m3]	refractive index, [2]
288.15 K	818.282	1.41192
293.15 K	814.635	1.40994
298.15 K	810.968	1.40796
303.15 K	807.278	1.40595
308.15 K	803.558	1.40388
313.15 K	799.817	1.40189
318.15 K	796.001	1.39987
323.15 K	792.166	1.39776

CCCCCO [pentan-1-ol] + C1CCC(NC2CCCCC2)CC1
Conditions	mass density, [3] [kg/m3]	refractive index, [4]
288.15 K	818.282	1.41192
293.15 K	814.635	1.40994
298.15 K	810.968	1.40796
303.15 K	807.278	1.40595
308.15 K	803.558	1.40388
313.15 K	799.817	1.40189
318.15 K	796.001	1.39987
323.15 K	792.166	1.39776

CCCO [propan-1-ol]
Conditions	mass density, [1] [kg/m3]	refractive index, [2]
288.15 K	807.69	1.38785
293.15 K	803.703	1.38578
298.15 K	799.692	1.38364
303.15 K	795.65	1.38153
308.15 K	791.576	1.37929
313.15 K	787.466	1.37702
318.15 K	783.309	1.37483
323.15 K	779.095	1.37252

CCCO [propan-1-ol] + C1CCC(NC2CCCCC2)CC1
Conditions	mass density, [3] [kg/m3]	refractive index, [4]
288.15 K	807.69	1.38785
293.15 K	803.703	1.38578
298.15 K	799.692	1.38364
303.15 K	795.65	1.38153
308.15 K	791.576	1.37929
313.15 K	787.466	1.37702
318.15 K	783.309	1.37483
323.15 K	779.095	1.37252
